US8426437B2, “Pyrroloquinoline derivatives and their use as protein kinases inhibitors” (Pierre Fabre Medicament, priority 2005, dated 2013)
pIC50: −log10 of the molar value. Structures can show the parent of a compound that is named as a salt.

biological target: T1, RET (Homo sapiens, UniProt P07949); assay: Inhibition of RET kinase activity, recombinant RET method (Kinase-Glo); type: biochemical; conditions: RET 2 μg/ml, poly-EY4 substrate, 20 μM ATP, two hours at 30° C.
T1 construct: purchased Upstate 14-570MG
T1 sequence (P07949 29-1114): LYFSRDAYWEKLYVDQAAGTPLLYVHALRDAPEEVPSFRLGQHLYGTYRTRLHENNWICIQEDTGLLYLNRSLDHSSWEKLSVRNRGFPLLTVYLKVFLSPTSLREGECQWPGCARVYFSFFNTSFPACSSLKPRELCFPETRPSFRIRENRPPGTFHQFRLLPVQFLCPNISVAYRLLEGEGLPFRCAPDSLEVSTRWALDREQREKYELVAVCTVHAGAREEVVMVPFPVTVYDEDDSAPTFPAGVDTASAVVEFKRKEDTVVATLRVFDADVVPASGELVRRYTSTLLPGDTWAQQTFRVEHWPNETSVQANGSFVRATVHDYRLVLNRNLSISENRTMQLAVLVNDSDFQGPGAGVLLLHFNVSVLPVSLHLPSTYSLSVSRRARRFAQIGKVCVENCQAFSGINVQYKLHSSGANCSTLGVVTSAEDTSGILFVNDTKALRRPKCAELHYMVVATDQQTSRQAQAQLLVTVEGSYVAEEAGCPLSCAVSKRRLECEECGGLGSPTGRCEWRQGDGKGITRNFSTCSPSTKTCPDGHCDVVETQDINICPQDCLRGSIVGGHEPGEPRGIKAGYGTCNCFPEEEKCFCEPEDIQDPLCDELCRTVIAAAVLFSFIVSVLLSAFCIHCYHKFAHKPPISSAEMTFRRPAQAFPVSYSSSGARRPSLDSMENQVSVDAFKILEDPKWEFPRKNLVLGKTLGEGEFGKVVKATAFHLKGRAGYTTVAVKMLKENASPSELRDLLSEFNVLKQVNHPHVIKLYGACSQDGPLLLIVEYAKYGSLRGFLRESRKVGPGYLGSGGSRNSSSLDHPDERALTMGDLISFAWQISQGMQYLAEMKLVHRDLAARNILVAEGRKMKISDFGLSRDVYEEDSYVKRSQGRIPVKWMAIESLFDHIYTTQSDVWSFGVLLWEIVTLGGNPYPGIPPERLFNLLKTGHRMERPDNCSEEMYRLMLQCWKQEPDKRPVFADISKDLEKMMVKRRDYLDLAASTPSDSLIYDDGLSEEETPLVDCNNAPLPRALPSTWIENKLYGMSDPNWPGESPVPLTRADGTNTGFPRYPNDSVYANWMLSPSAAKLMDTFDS
Procedure, shortened: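 Recombinant RET at 2 μg/ml in 20 mM MOPS/NaOH pH 7.0, 1 mM EDTA, 5% glycerol, 0.01% Brij35, 0.1% 2-mercaptoethanol, 1 mg/ml BSA; compounds 10 nM–30 μM final.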

Row | Compound | pIC50
1 | CCOC(=O)c1c[nH]c2c(=O)[nH]c3ccc(-c4ccccc4N)cc3c12 [Compound 231, 8-(2-Aminophenyl)-4-oxo-4,5-dihydro-3H-pyrrolo[2,3-c]quinoline-1-ethyl carboxylate] | 6.00 to 7.00
2 | NC(=O)C1CCCN(S(=O)(=O)c2ccc3[nH]c(=O)c4[nH]cc(C(=O)O)c4c3c2)C1 (stereo not drawn) [Compound 180, 8-(3-Carbamoyl-piperidine-1-sulfonyl)-4-oxo-4,5-dihydro-3H-pyrrolo[2,3-c]quinoline-1-carboxylic acid] | 4.00 to 5.00
3 | CCCOC(=O)c1c[nH]c2c(=O)[nH]c3cc(OC)c(S(=O)(=O)N(C)C4CC4)cc3c12 [Compound 188] | 5.00 to 6.00
4 | O=C(NCCCO)c1c[nH]c2c(=O)[nH]c3ccccc3c12 [Compound 85, N-(3-Hydroxy-propyl)-4-oxo-4,5-dihydro-3H-pyrrolo[2,3-c]quinoline-1-carboxamide] | 4.00 to 5.00
5 | CCOC(=O)c1ccc(NS(=O)(=O)c2ccc3[nH]c(=O)c4[nH]cc(C(=O)OCC)c4c3c2)cc1 [Compound 14, 8-(4-Ethoxycarbonyl-phenylsulfamoyl)-4-oxo-4,5-dihydro-3H-pyrrolo[2,3-c]quinoline-1-ethyl carboxylate] | 5.00 to 6.00
6 | CCCOC(=O)c1c[nH]c2c(=O)[nH]c3ccc(S(=O)(=O)N(C)CCN(C)C(=O)OC(C)(C)C)cc3c12 [Compound 140, 8-{[2-(tert-Butoxycarbonyl-methyl-amino)-ethyl]-methyl-sulfamoyl}-4-oxo-4,5-dihydro-3H-pyrrolo[2,3-c]quinoline-1-propyl carboxylate] | 5.00 to 6.00
7 | CCCOC(=O)c1c[nH]c2c(=O)[nH]c3ccc(S(=O)(=O)N(C)CC(=O)OC(C)(C)C)cc3c12 [Compound 183, 8-(tert-Butoxycarbonylmethyl-methyl-sulfamoyl)-4-oxo-4,5-dihydro-3H-pyrrolo[2,3-c]quinoline-1-propyl carboxylate] | 5.00 to 6.00
8 | CCOC(=O)c1c[nH]c2c(=O)[nH]c3ccc(S(=O)(=O)Nc4ccc(N)cc4)cc3c12 [Compound 20, 8-(4-Aminophenylsulfamoyl)-4-oxo-4,5-dihydro-3H-pyrrolo[2,3-c]quinoline-1-ethyl carboxylate] | > 7.00
9 | C#CCN(CCN(C(=O)OC(C)(C)C)C(C)C)S(=O)(=O)c1ccc2[nH]c(=O)c3[nH]cc(C(=O)OCCC)c3c2c1 [Compound 159, 8-{[2-(tert-Butoxycarbonyl-isopropyl-amino)-ethyl]-prop-2-ynyl-sulfamoyl}-4-oxo-4,5-dihydro-3H-pyrrolo[2,3-c]quinoline-1-propyl carboxylate] | 5.00 to 6.00
10 | CCOC(=O)c1c[nH]c2c(=O)[nH]c3ccc(-c4ccc(C#N)cc4)cc3c12 [Compound 247, 8-(4-Cyano-phenyl)-4-oxo-4,5-dihydro-3H-pyrrolo[2,3-c]quinoline-1-ethyl carboxylate] | 4.00 to 5.00
11 | C#CCN(CCNC)S(=O)(=O)c1ccc2[nH]c(=O)c3[nH]cc(C(=O)OCCC)c3c2c1 [Compound 156, 8-[(2-Methylamino-ethyl)-prop-2-ynyl-sulfamoyl]-4-oxo-4,5-dihydro-3H-pyrrolo[2,3-c]quinoline-1-propyl carboxylate hydrochloride] | > 7.00
12 | CCOC(=O)c1c[nH]c2c(=O)[nH]c3ccc(-c4csc(CSc5ccccc5)n4)cc3c12 [Compound 276, 4-Oxo-8-(2-phenylsulfanylmethyl-thiazol-4-yl)-4,5-dihydro-3H-pyrrolo[2,3-c]quinoline-1-ethyl carboxylate] | 6.00 to 7.00
13 | CCCOC(=O)c1c[nH]c2c(=O)[nH]c3ccc(S(=O)(=O)N(C)CCNC)cc3c12 [Compound 139, 8-[Methyl-(2-methylamino-ethyl)-sulfamoyl]-4-oxo-4,5-dihydro-3H-pyrrolo[2,3-c]quinoline-1-propyl carboxylate hydrochloride] | > 7.00
14 | CCOC(=O)c1c[nH]c2c(=O)[nH]c3ccc(S(=O)(=O)Cc4ccncc4)cc3c12 [Compound 195, 4-Oxo-8-(pyridin-4-ylmethanesulfonyl)-4,5-dihydro-3H-pyrrolo[2,3-c]quinoline-1-ethyl carboxylate] | 6.00 to 7.00
15 | CCOC(=O)c1c[nH]c2c(=O)[nH]c3ccc(S(=O)(=O)Nc4ccc(F)cc4C)cc3c12 [Compound 17, 8-(4-Fluoro-2-methyl-phenylsulfamoyl)-4-oxo-4,5-dihydro-3H-pyrrolo[2,3-c]quinoline-1-ethyl carboxylate] | > 7.00
16 | CCOC(=O)c1c[nH]c2c(=O)[nH]c3ccc(-c4ccccc4Cl)cc3c12 [Compound 229, 8-(2-Chlorophenyl)-4-oxo-4,5-dihydro-3H-pyrrolo[2,3-c]quinoline-1-ethyl carboxylate] | 6.00 to 7.00
17 | CCOC(=O)c1c[nH]c2c(=O)[nH]c3ccc(CCC(C)(C)O)cc3c12 [Compound 208, 8-(3-Hydroxy-3-methyl-butyl)-4-oxo-4,5-dihydro-3H-pyrrolo[2,3-c]quinoline-1-ethyl carboxylate] | 6.00 to 7.00
18 | CCOC(=O)c1c[nH]c2c(=O)[nH]c3ccc(S(=O)(=O)NC4CCCCC4)cc3c12 [Compound 30, 8-Cyclohexylsulfamoyl-4-oxo-4,5-dihydro-3H-pyrrolo[2,3-c]quinoline-1-ethyl carboxylate] | 6.00 to 7.00

Second part, the molecule after the results:

Row | pIC50 | Compound
19 | 6.00 to 7.00 | CCOC(=O)c1c[nH]c2c(=O)[nH]c3ccc([S+]([O-])Cc4ccccc4)cc3c12 (stereo not drawn) [Compound 198, 4-Oxo-8-phenylmethanesulfinyl-4,5-dihydro-3H-pyrrolo[2,3-c]quinoline-1-ethyl carboxylate]
20 | 4.00 to 5.00 | CCOC(=O)c1c[nH]c2c(=O)[nH]c3c([N+](=O)[O-])cccc3c12 [Compound 67, 6-Nitro-4-oxo-4,5-dihydro-3H-pyrrolo[2,3-c]quinoline-1-ethyl carboxylate]
21 | 5.00 to 6.00 | CCOC(=O)c1c[nH]c2c(=O)[nH]c3ccc(C#C[Si](C)(C)C)cc3c12 [Compound 200, 4-Oxo-8-trimethylsilanylethynyl-4,5-dihydro-3H-pyrrolo[2,3-c]quinoline-1-ethyl carboxylate]
22 | 6.00 to 7.00 | CCOC(=O)c1c[nH]c2c(=O)[nH]c3ccc(NS(C)(=O)=O)cc3c12 [Compound 38, 8-Methanesulfonylamino-4-oxo-4,5-dihydro-3H-pyrrolo[2,3-c]quinoline-1-ethyl carboxylate]
23 | 5.00 to 6.00 | CCOC(=O)c1c[nH]c2c(=O)[nH]c3ccc(C#Cc4ccccn4)cc3c12 [Compound 202, 4-Oxo-8 pyridin-2-ylethynyl-4,5-dihydro-3H-pyrrolo[2,3-c]quinoline-1-ethyl carboxylate]
24 | 4.00 to 5.00 | CN(c1ccc(F)cc1)S(=O)(=O)c1ccc2[nH]c(=O)c3[nH]cc(C(=O)OCCN)c3c2c1 [Compound 105, 8-[(4-Fluorophenyl)-methyl-sulfamoyl]-4-oxo-4,5-dihydro-3H-pyrrolo[2,3-c]quinoline-1-2-aminoethyl trifluoroacetate carboxylate]
25 | 6.00 to 7.00 | CCCOC(=O)c1c[nH]c2c(=O)[nH]c3ccc(S(=O)(=O)N4CC[C@H](N(C)C)C4)cc3c12 [Compound 171]
26 | 6.00 to 7.00 | CCOC(=O)c1c[nH]c2c(=O)[nH]c3ccc(NS(=O)(=O)c4ccc(C)cc4)cc3c12 [Compound 47, 4-Oxo-8-(4-toluenesulfonylamino)-4,5-dihydro-3H-pyrrolo[2,3-c]quinoline-1-ethyl carboxylate]
27 | 5.00 to 6.00 | CCOC(=O)c1c[nH]c2c(=O)[nH]c3ccc(-c4ccc(OC)nc4)cc3c12 [Compound 260, 8-(6-Methoxy-pyridin-3-yl)-4-oxo-4,5-dihydro-3H-pyrrolo[2,3-c]quinoline-1-ethyl carboxylate]
